Type in all cases: cell-based
Experiment [1] has as its system TM90C2A (DHFR, folate pathway; compared with 3D7). In words: Cross-resistance EC50 assay, TM90C2A. As to conditions: Plasmodium falciparum, 48 h, read-out: TM90C2A (3D7 Parent) Average EC50. From the text:
(§1) To evaluate potential overlapping activity against known antimalarial drug targets, we performed dose-response studies with each compound against our assembled set of drug-resistant lines and their corresponding parents, in an asexual blood stage proliferation assay (Table 1). Comparisons were made to the drug-sensitive strain 3D7 when a parent was unavailable (TM90C2A, W2 and Dd2). As laboratories conducted EC50 assays with different strains and protocols, all comparisons were made between assays from the same laboratory and under the same assay conditions. Compounds displaying >5-fold EC50 shifts relative to the parent or sensitive strain were flagged as having potentially non-novel targets. Average fold shifts per strain ranged from 0.82 to 2.34, with a median of 1.23 indicating there was not common resistance to any one resistant clone. No resistance patterns were observed when classifying the compounds based on chemical structure, but this was not surprising given the diversity of compounds chosen. On the other hand, given that these confirmed compounds were derived from larger unconfirmed hit lists to which some filtration criteria may have been applied (for example, elimination of obvious dihydrofolate reductase inhibitors[32]), some[10][11][12][13] pre-existing bias may exist in the set.
The 48-h assay was carried out in a 96-well format following standard methods using the ^3H-hypoxanthine incorporation assay. The raw EC50 values corresponding to this assay can be found in Supplementary Data 3. Briefly, this assay relies on the parasite incorporation of labelled hypoxanthine that is proportional to P. falciparum growth. A culture of parasitized RBCs (0.5% parasitemia with a percentage of ring stage higher than 70% of total parasitemia, 2.0% haematocrit) in RPMI-1640, […] and 5 μM hypoxanthine was exposed to drug serial dilutions. Plates were incubated for 24 h at 37 °C, 5% CO2, 5% O2 and 90% N2. After 24 h of incubation, ^3H-hypoxanthine was added and plates were incubated for an additional 24-h period. After that, parasites were harvested on a glass fibre filter using a TOMTEC Cell Harvester 96. Filters were dried and melt-on scintillator sheets were used to determine the incorporation of ^3H-hypoxanthine. Radioactivity was measured using a microbeta counter. Data were normalized using the incorporation of the positive (parasitized RBCs without drug) and negative (same culture with artesunate at 2 μM) controls. All assays were conducted in triplicate using three independently grown cultures, and EC50 values were determined using the XLfit add-in module for Excel (version 2.3.1) from Grafit (version 5.3.1.3), where parameter h is the assay hill slope, x is the compound concentration and y is the inhibition of growth effect. The XLfit equation is: […]
(§2) EC50 values for each strain were compared with those of the corresponding parent strain to determine fold-shift changes and identify resistance. To minimize the cause variance between assays, all comparisons were conducted between strains assayed under identical conditions. A one-way ANOVA followed by a Dunnet's post-test was conducted in GraphPad Prism to identify significant changes between the parent and resistant strain.

Experiment [2] deals with NITD609-R2 (PfATP4 T418N and P990R, parent Dd2). In words: Cross-resistance EC50 assay, NITD609-R2. To be noted: Plasmodium falciparum, SYBR green 72 hour assay, asynchronized parasites, 96-well or 1536-well format.
Excerpt: as §1, with “set. […]” for “set.”
(§3) Alternatively, a SYBR Green-based proliferation approach was used for the 72-h assay, as previously described. Briefly, a culture of either synchronized or asynchronous parasitized RBCs (0.3% parasitemia and 4% haematocrit) in screening medium (identical to supplemented medium above except no serum was added) was exposed to serial drug dilutions. Plates were incubated at 37 °C and gassed with 93% N2, 4% CO2 and 3% O2 for 72 h. Following incubation, 10 × SYBR Green I (Invitrogen; supplied in 10,000 × concentration) in lysis buffer ([…], 5 mM EDTA, 0.16% Saponin wt per vol and 1.6% Triton X vol per vol) was added to the wells and the plates were incubated overnight at room temperature before plate reading. EC50 assays were repeated three times, taking the average EC50 value from each assay set, and removing any outliers using a single iteration of Grubbs' test, eliminating values with z-scores above the critical z-value (α=0.05). The raw EC50 values for synchronized parasites assayed in a 384-well format are listed in Supplementary Data 4. The raw EC50 values for asynchronous parasites assayed in a 96 or 1536-well format are listed in Supplementary Data 5.
as §2

In the next experiment the test system is PfCRT-Q352R (parent Dd2). In words: Cross-resistance EC50 assay, PfCRT-Q352R. As to conditions: Plasmodium falciparum, DD2, 72 h, read-out: PfCRT:Q352R (Dd2 Parent) Average EC50.
Excerpt: as §1, with “set. […]” for “set.”
as §3, §2

Drawing on PMC4912613, “A broad analysis of resistance development in the malaria parasite” (Nature Communications, 2016), this text covers EC50 for 17 molecules.

Structures are written as SMILES.

On to `O=C(NCC(CCCN1CCC(c2c[nH]c3ccccc23)CC1)c1ccccc1)Nc1ccc(Cl)c(Cl)c1` (stereo not drawn) [MMV029272], for which the EC50 in experiment [1] was determined as 415 nM; in experiment [2], 0.152 µM; with PfCRT-Q352R (parent Dd2) it was 267 nM.

Consider `CC(C)(C)OC(=O)N1CCN(c2ccccc2NC(=O)c2cccc(C(F)(F)F)c2Oc2ccc(F)cc2)CC1` [MMV030666], for which the figures for the EC50 (in experiment [1]; in experiment [2]; with PfCRT-Q352R (parent Dd2)) were 544 nM, 0.221 µM and 315 nM, respectively.

Regarding `CC(NCc1ccccc1)c1cc(Cl)ccc1O` (stereo not drawn) [MMV665789], the EC50 is 1480 nM in experiment [1], 0.261 µM in experiment [2] and 571 nM with PfCRT-Q352R (parent Dd2).

For `FC(F)(F)c1cccc(Nc2nc3ccccc3nc2Nc2cccc(C(F)(F)F)c2)c1` [MMV665794], the values for the EC50 (in experiment [1]; in experiment [2]; in the experiment on PfCRT-Q352R (parent Dd2)) were 73 nM, 0.321 µM and 116 nM, respectively.

Consider `O=C(Nc1ccc(Cl)c(Cl)c1)Nc1ccc(Cl)c(Cl)c1` [MMV665852], for which the results for the EC50 (in experiment [1]; in experiment [2]; in the experiment on PfCRT-Q352R (parent Dd2)) were 566 nM, 1.75 µM and 905 nM, respectively.

With `OC(CNC1CCCCC1)Cn1c2ccc(I)cc2c2cc(I)ccc21` (stereo not drawn) [MMV665882], the concentration for a half-maximal effect (EC50) in experiment [1] came out at 207 nM; in experiment [2], 0.046 µM; in the experiment with PfCRT-Q352R (parent Dd2) it was 47 nM.

For the molecule `O=C(Nc1ccccc1O)c1ccc(Oc2cccc(C(=O)Nc3ccccc3O)c2)cc1` [MMV665888], the EC50 in experiment [1] was found to be 1040 nM; in experiment [2] it was 0.812 µM; in the experiment on PfCRT-Q352R (parent Dd2), 683 nM.

Turning to `COc1ccc(C(=O)C2CC2c2ccc(Cl)cc2)cc1` (stereo not drawn) [MMV665924], the half-maximal effective concentration (EC50) amounted to 1600 nM in experiment [1], 1.69 µM in experiment [2] and 1400 nM in the experiment on PfCRT-Q352R (parent Dd2).

Turning to `CCC(C)NCC(O)(c1ccc(Cl)cc1)c1ccc(Cl)cc1` (stereo not drawn) [MMV665928], the EC50 was determined as 432 nM in experiment [1], 0.18 µM in experiment [2] and 486 nM in the experiment with PfCRT-Q352R (parent Dd2).

`O=C(Nc1ccsc1C(=O)NC1CCCCC1)c1ccc(F)cc1` [MMV665939]: the EC50 in experiment [1] was 1350 nM; in experiment [2], 1.4 µM; in the experiment on PfCRT-Q352R (parent Dd2), 1140 nM.

`Nc1ccc(-c2nc3cc(Cc4ccc5[nH]c(-c6ccc(N)cc6)nc5c4)ccc3[nH]2)cc1` [MMV665943]: the figures for the half-maximal effective concentration (EC50) (in experiment [1]; in experiment [2]; with PfCRT-Q352R (parent Dd2)) were 298 nM, 0.334 µM and 407 nM, respectively.

With `O=C(NC(c1ccccc1)c1ccc2cccnc2c1O)c1ccccc1` (stereo not drawn) [MMV666080], the EC50 was found to be 860 nM in experiment [1], 1.19 µM in experiment [2] and 545 nM in the experiment with PfCRT-Q352R (parent Dd2).

As to `COc1cc(C(=O)ON=C(N)Cc2cccc3ccccc23)cc(OC)c1OC` [MMV666687], the half-maximal effective concentration (EC50) worked out at 180 nM in experiment [1], 0.535 µM in experiment [2] and 326 nM with PfCRT-Q352R (parent Dd2).

For the molecule `c1cc(-c2cnc3ccc(-c4ccc(N5CCOCC5)cc4)nn23)ccn1` [MMV668311], the EC50 in experiment [1] amounted to 86 nM; in experiment [2], 0.016 µM; in the experiment on PfCRT-Q352R (parent Dd2), 63 nM.

As for `c1cncc(-c2cc(N3CCC(CN4CCOCC4)CC3)nc(-c3ccncc3)n2)c1` [MMV668399], the EC50 in experiment [1] was 86 nM; in experiment [2], 0.652 µM; in the experiment with PfCRT-Q352R (parent Dd2), 70 nM.

Regarding `COc1ccc2c3c([nH]c2c1)[C@H](CO)N(C(C)=O)CC31CCN(C(=O)Nc2ccccc2F)CC1` [MMV673482], the EC50 in experiment [1] stood at 352 nM; in experiment [2], 0.007 µM; with PfCRT-Q352R (parent Dd2), 71 nM.

For the molecule `CN(C)CCCNCc1ccc(-c2ccc(Cl)c(Cl)c2)o1` [MMV673964], the EC50 in experiment [1] came out at 569 nM; in experiment [2], 0.756 µM; with PfCRT-Q352R (parent Dd2), 552 nM.

The EC50 is the concentration giving half of the maximal effect.
